Data from PubChem BioAssay (NCI).
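96-well plates; 48 h exposure; 5 concentrations. Endpoints by linear interpolation between flanking doses. Not reached: highest tested concentration assigned. The concentration for 50% growth inhibition is given as GI50. TGI denotes the concentration required for complete inhibition of growth.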

Key:
Test in all cases: inhibition of tumour cell growth, NCI panel, 48 h
EKVX NSCLC = tested on: EKVX NSCLC
KM12 colon = tested on: KM12 colon
ACHN renal = tested on: ACHN renal
OVCAR-4 ovarian = tested on: OVCAR-4 ovarian
HS 578T breast = tested on: HS 578T breast
UACC-257 melanoma = tested on: UACC-257 melanoma
HL-60(TB) leukemia = tested on: HL-60(TB) leukemia
SK-MEL-2 melanoma = tested on: SK-MEL-2 melanoma
SK-MEL-28 melanoma = tested on: SK-MEL-28 melanoma
UO-31 renal = tested on: UO-31 renal

Structure (SMILES)	GI50 (EKVX NSCLC)	TGI (EKVX NSCLC) [µM]	GI50 (KM12 colon)	TGI (KM12 colon) [µM]	GI50 (ACHN renal)	TGI (ACHN renal) [µM]	GI50 (OVCAR-4 ovarian)	TGI (OVCAR-4 ovarian) [µM]	GI50 (HS 578T breast)	TGI (HS 578T breast) [µM]	GI50 (UACC-257 melanoma) [µM]	TGI (UACC-257 melanoma) [µM]	GI50 (HL-60(TB) leukemia) [µM]	TGI (SK-MEL-2 melanoma)	GI50 (SK-MEL-28 melanoma)	TGI (SK-MEL-28 melanoma) [µM]	GI50 (UO-31 renal)	TGI (UO-31 renal) [µM]	TGI (HL-60(TB) leukemia) [µM]	GI50 (SK-MEL-2 melanoma)
O=c1[nH]nc(-c2ccccc2)c2c(-c3ccccc3)onc12	1.25 µM	> 100	0.389 µM	> 39.6	3.38 µM	> 100	2.4 µM	> 100	0.255 µM	1.37	6.7	> 100	0.291	> 100 µM	0.793 µM	> 100	0.592 µM	> 100	–	–
O=[N+]([O-])c1cc2c(ccc3occc32)o1	–	–	2.78 µM	7.31	0.561 µM	8.03	27.2 µM	> 100	4.29 µM	70.2	1.77	3.88	1.59	4.56 µM	2.17 µM	6.27	1.99 µM	7.65	6.09	2.03 µM
CC(=O)n1c(-c2ccc(Cl)c(Cl)c2)cn(-c2ccc(Cl)cc2)c1=O	12.5 µM	34.6	67 µM	> 100	27.8 µM	> 100	20 µM	57.7	15.5 µM	36.5	22.4	66.8	34.8	69.2 µM	> 100 µM	> 100	24.7 µM	51.4	> 100	22.4 µM
CC1=NN(C(=O)c2nn(-c3ccc(Cl)cc3)cc2O)C(=O)C1	1.93 µM	> 100	4.52 µM	> 100	1.61 µM	> 100	3 µM	> 100	0.34 µM	> 100	6.27	28.9	1.17	> 100 µM	9.13 µM	> 100	2.87 µM	> 100	7.46	53.7 µM
CN(C)c1ncnc2c1ccn2C1OC(CO)C(O)C1O (centres undefined)	3.98 µM	> 92.3	34.9 µM	> 100	3.18 µM	> 100	2.02 µM	38.4	2.71 µM	40.2	> 100	> 100	0.316	> 100 µM	> 100 µM	> 100	1.37 µM	13.7	1.89	> 100 µM
CC(C)=CCc1cc(C2COc3cc4c(c(O)c3C2=O)C=CC(C)(C)O4)c(O)cc1O (centres undefined)	–	27.5	–	32.7	–	32.4	–	24.2	–	39.9	–	27.4	–	31.7 µM	–	50.4	–	26	31.1	–
O=C(Cn1c2ccccc2c2ccncc21)N/N=C\c1ccc2ccccc2c1	24.8 µM	> 100	29.6 µM	> 100	19.3 µM	48.5	15.4 µM	80.8	23.5 µM	79.2	42.1	> 100	29	42 µM	19.2 µM	79.7	13.3 µM	45.6	> 100	19.2 µM
COc1ccc2c(c1OC)C(=O)O[C@@H]2[C@H]1c2c(c(Br)c3c(c2OC)OCO3)CCN1C	41.8 µM	> 100	4.49 µM	> 100	> 100 µM	> 100	> 100 µM	> 100	31.4 µM	> 100	7.76	> 100	1.82	> 100 µM	> 100 µM	> 100	> 100 µM	> 100	> 100	> 100 µM
COc1cc2nncc(SCc3ccc(Cl)c(Cl)c3)c2cc1OC	–	> 100	–	> 100	–	> 100	–	> 91.9	–	> 100	–	> 100	–	> 100 µM	–	> 100	–	> 100	> 100	–
CN(CCCN(C)CCC1CCCCC1)CCC1CCCCC1	2.24 µM	11.1	2.04 µM	4.12	4 µM	14.9	3.35 µM	14.6	2.26 µM	6.68	0.291	0.876	0.319	4.84 µM	1.91 µM	3.41	1.58 µM	14.4	8.61	2.19 µM
O=C1c2ccn(CCCCN(CCO)CCO)c2C(=O)c2c1c(O)c1ccccc1c2O	23.3 µM	> 75.7	1.75 µM	3.59	21.6 µM	57.7	31.7 µM	> 100	17.4 µM	59.3	4.83	24.4	3.17	–	5.05 µM	> 100	12.5 µM	> 100	–	–
Cc1ccc(-c2c3c(N)c4c(nc3nc3c2c(C)nn3-c2ccccc2)CCC4)cc1	–	–	4.4 µM	16	3.16 µM	8.38	2.98 µM	11.9	5.03 µM	15.6	14.1	28.8	2.07	42.6 µM	4.44 µM	9.69	1.87 µM	3.94	4.67	21.1 µM
CCc1c2c(nc3ccc(OCc4ccc(B5OC(C)(C)C(C)(C)O5)cc4)cc13)-c1cc3c(c(=O)n1C2)COC(=O)[C@]3(O)CC	0.431 µM	> 100	0.137 µM	1.62	0.0278 µM	2.07	0.192 µM	> 100	1.11 µM	> 100	0.0477	1.26	0.0291	> 24.6 µM	0.604 µM	> 100	0.0326 µM	1.02	–	0.825 µM
Cc1cc(Cl)ccc1Nc1nc(C(F)(F)F)ccc1C(=O)Nc1cccc(C(F)(F)F)c1	1.85 µM	11.1	2.1 µM	12.1	2.75 µM	9.01	3.07 µM	11.3	3.95 µM	20.2	3.2	11.6	2.06	13.3 µM	4.79 µM	16.6	3.71 µM	16	4.67	3.23 µM
CN(C)C(=S)SCC(N)=O	–	> 100	–	> 100	–	> 100	–	> 100	–	> 100	–	> 100	–	> 100 µM	–	> 100	–	–	> 100	–
O=CN1N=C(c2ccc(Nc3ccnc4cc(Cl)ccc34)cc2)CC1c1ccc(Cl)cc1 (centres undefined)	–	–	0.538 µM	> 100	1 µM	> 100	6.48 µM	> 100	3.93 µM	> 100	> 100	> 100	0.376	> 100 µM	0.758 µM	> 100	1.3 µM	> 100	> 100	7.86 µM
O=C1NC(SCc2ccc(F)cc2)=N/C1=C/c1cccc(OCc2ccc(Cl)cc2)c1	8.86 µM	> 100	> 100 µM	> 100	1.93 µM	3.87	2.07 µM	4.85	9.36 µM	> 100	> 100	> 100	> 100	> 100 µM	> 100 µM	> 100	–	–	> 100	> 100 µM
Nc1cc(-c2ccccc2)n(C(=O)Nc2ccc(Oc3ccccc3)cc2)n1	> 100 µM	> 100	> 100 µM	> 100	34.9 µM	> 100	2.91 µM	27	31.9 µM	> 100	84.5	> 100	47.8	> 100 µM	1.62 µM	39.2	52.5 µM	> 100	> 100	> 100 µM
CNc1ncc2cc(Oc3ccc(F)cc3F)c(=O)n(C)c2n1	–	–	> 25 µM	> 25	> 25 µM	> 25	> 25 µM	> 25	> 25 µM	> 25	> 25	> 25	> 25	> 25 µM	> 25 µM	> 25	> 25 µM	> 25	> 25	> 25 µM
Cn1c2ccccc2c2[nH]c3ccccc3c(=O)c21	–	> 100	–	> 100	–	> 100	–	–	–	> 100	–	> 100	–	> 100 µM	–	> 100	–	> 100	> 100	–
Nc1ccccc1C#C/C=C\C#Cc1ccccc1F	10.8 µM	53.2	2.1 µM	11	13.5 µM	40	24.4 µM	> 100	2.09 µM	5.1	15.7	47.5	–	47.3 µM	18 µM	75.1	11.9 µM	35	–	17.3 µM
O=C(NN1C(=O)CSC12CCC(c1ccccc1)CC2)c1[nH]c2ccc(F)cc2c1-c1ccccc1 (centres undefined)	26.7 µM	62	16 µM	30.7	17.2 µM	31.8	15.8 µM	32.5	21.4 µM	52.3	19.3	35.6	–	33.2 µM	18.1 µM	34.3	17 µM	31	–	17.6 µM
COc1ccc(C=C2C(=O)NC(=O)NC2=O)cc1OCc1ccccc1	85.2 µg/mL	–	33 µg/mL	–	36.9 µg/mL	–	35.6 µg/mL	–	27.1 µg/mL	–	–	–	–	79.4 µg/mL	65.7 µg/mL	–	33 µg/mL	–	–	25.6 µg/mL
CN(C)N=Nc1nn(C(=O)Nc2ccc(Cc3ccccc3)cc2)c2ccccc12	–	–	0.312 µM	> 100	0.282 µM	> 100	–	> 100	> 100 µM	> 100	0.862	> 100	25.2	> 100 µM	–	> 100	3.23 µM	> 79	> 100	2.07 µM
O=C1NC(c2ccccc2)N=C2Oc3ccccc3C=C12 (centres undefined)	–	> 100	–	> 22.8	–	> 100	–	> 100	–	7.06	–	> 100	–	> 100 µM	–	> 100	–	> 100	–	–
C=C(C)C(=O)O[C@H]1CC2=CC(CC(C)=C[C@H]3OC(=O)C(=C)C13)OC2=O (some centres undefined)	–	43.8	–	47.1	–	27.6	–	> 100	–	> 100	–	96.3	–	72.4 µM	–	31.2	–	–	11.8	–
Oc1ccc(O)c2c1C1(Cl)C(Cl)=C(Cl)C2(Cl)C1(Cl)Cl	1.47 µM	7.45	2.44 µM	7.62	4.43 µM	21.3	8.32 µM	> 100	2.07 µM	8.09	3.97	17.4	3.19	–	10.9 µM	81	2.43 µM	10.6	12.1	–
NS(=O)(=O)c1ccc(N2N=C(c3cccs3)CC2c2ccccc2O)cc1 (centres undefined)	–	–	0.809 µM	1.94	2.9 µM	13	2.88 µM	> 33.3	0.845 µM	2.7	1.47	7.97	–	5.16 µM	2.12 µM	8.62	4.01 µM	12.1	–	1.2 µM
COC1C(O)C(C)OC(O[C@@H]2C[C@H]3CC[C@@H]4[C@H](CC[C@]5(C)[C@@H](C6=CC(=O)OC6)CC[C@]45O)[C@@]3(C)[C@H](O)C2)C1O (some centres undefined)	–	0.168	–	1.8	–	0.615	–	0.0379	–	> 100	–	1.07	–	1.7 µM	–	0.819	–	–	0.145	–
